Here are results for four molecules from US20130053434A1, “IRREVERSIBLE INHIBITORS USEFUL FOR THE TREATMENT OF KINASE-RELATED PATHOLOGIES” (CENTRE NATIONAL DE LA RECHERCHE SCIENTIFIQUE, priority 2009, published 2013).

Data set [1] deals with panel of kinases (402). The experiment in a line: larger panel of kinases (402), competition binding, whole panel. The settings on record: 1 μM; for number of kinases out of 31 with more than 50% residual activity: 31 of the 46 predicted kinases. The protocol: (§1) Two representative library members (1afh and 1bgi) were then evaluated in a larger panel of kinases (402) using the technology described by Lockhart et al. (M. A. Fabian, et al., Nat. Biotechnol. 2005, 23, 329-336; M. W. Karaman, et al., Nat. Biotechnol. 2008, 26, 127-132). In this panel, 31 kinases out of the 46 kinases bioinformatically identified by Santi and coworkers are present along with numerous other kinases bearing a cysteine residue at other positions within the ATP-binding pocket (J. Zhang, P. L. Yang, N. S. Gray, Nat. Rev. Cancer 2009, 9, 28-39).
(§2) The selectivity profile was measure using the KinomeScan™ technology (http://www.kinomescan.com/) based on active-site dependent competition binding assay (Karaman, M. W., et al. (2008) Nat. Biotechnol. 26, 127-32; Fabian, M. A., et al. (2005) Nat. Biotechnol. 23, 329-36). Compounds 3 and 5 were profiled against a panel of 50 kinases including 42 kinases from the group of 48 kinases predicted by Santi et al. (Schirmer, A., et al. (2006) Proc. Natl. Acad. Sci. USA 103, 4234-9) to be targeted by hypothemycin and 5 mutants of FLT3 as well as 3 mutants of KIT. Both compounds were assayed at 1 μM. The results are expressed as a percentage of signal between a negative (DMSO) and positive (know binder) control [(test compound−positive control)/([…])×100].

Data set [2] concerns the target T1, Flt1 (Homo sapiens, UniProt P17948).
T1 construct: purchased KinomeScan
Briefly: panel of 402 kinases: Flt1. In kind it is binding. On the procedure: as §1, §2

Data set [3] deals with T2, Flt3 (Homo sapiens, UniProt P36888).
T2 construct: purchased KinomeScan
Briefly: panel of 402 kinases: Flt3. It counts as binding. The following applies: read-out: residual activity relatively to control. The protocol:
as §1, §2

Data set [4] addresses T3, GAK (Homo sapiens, UniProt O14976).
T3 construct: purchased KinomeScan
The experiment in a line: panel of 402 kinases: GAK. It counts as binding. The settings on record: read-out: residual activity relatively to control. On the procedure: as §1, §2

Data set [5] addresses KIT (Homo sapiens, UniProt P10721). The experiment in a line: panel of 402 kinases: KIT. In kind it is binding. The settings on record: read-out: residual activity relatively to control. The protocol: as §1, §2
The target in data set [6] is MEK1 (Homo sapiens, UniProt Q02750). The experiment in a line: panel of 402 kinases: MEK1. The settings on record: read-out: residual activity relatively to control. It counts as binding. The protocol:
as §1, §2

The target in data set [7] is T4, MEK2 (Homo sapiens, UniProt P36507).
T4 construct: purchased KinomeScan
The experiment in a line: panel of 402 kinases: MEK2. The settings on record: read-out: residual activity relatively to control. It counts as binding. On the procedure: as §1, §2

Data set [8] deals with T5, MKNK1 (Homo sapiens, UniProt Q9BUB5).
T5 construct: purchased KinomeScan
Briefly: panel of 402 kinases: MKNK1. It counts as binding. The settings on record: read-out: residual activity relatively to control. On the procedure: as §1, §2

Data set [9] has as its target T6, MKNK2 (Homo sapiens, UniProt Q9HBH9).
T6 construct: purchased KinomeScan
Briefly: panel of 402 kinases: MKNK2. It counts as binding. The following applies: read-out: residual activity relatively to control. On the procedure: as §1, §2

Data set [10] addresses T7, PDGFRα (Homo sapiens, UniProt P16234).
T7 construct: purchased KinomeScan
Briefly: panel of 402 kinases: PDGFRα. The settings on record: read-out: residual activity relatively to control. It counts as binding. On the procedure: as §1, §2

The target of data set [11] is T8, PDGFRβ (Homo sapiens, UniProt P09619).
T8 construct: purchased KinomeScan
T8 sequence (P09619 33-1106): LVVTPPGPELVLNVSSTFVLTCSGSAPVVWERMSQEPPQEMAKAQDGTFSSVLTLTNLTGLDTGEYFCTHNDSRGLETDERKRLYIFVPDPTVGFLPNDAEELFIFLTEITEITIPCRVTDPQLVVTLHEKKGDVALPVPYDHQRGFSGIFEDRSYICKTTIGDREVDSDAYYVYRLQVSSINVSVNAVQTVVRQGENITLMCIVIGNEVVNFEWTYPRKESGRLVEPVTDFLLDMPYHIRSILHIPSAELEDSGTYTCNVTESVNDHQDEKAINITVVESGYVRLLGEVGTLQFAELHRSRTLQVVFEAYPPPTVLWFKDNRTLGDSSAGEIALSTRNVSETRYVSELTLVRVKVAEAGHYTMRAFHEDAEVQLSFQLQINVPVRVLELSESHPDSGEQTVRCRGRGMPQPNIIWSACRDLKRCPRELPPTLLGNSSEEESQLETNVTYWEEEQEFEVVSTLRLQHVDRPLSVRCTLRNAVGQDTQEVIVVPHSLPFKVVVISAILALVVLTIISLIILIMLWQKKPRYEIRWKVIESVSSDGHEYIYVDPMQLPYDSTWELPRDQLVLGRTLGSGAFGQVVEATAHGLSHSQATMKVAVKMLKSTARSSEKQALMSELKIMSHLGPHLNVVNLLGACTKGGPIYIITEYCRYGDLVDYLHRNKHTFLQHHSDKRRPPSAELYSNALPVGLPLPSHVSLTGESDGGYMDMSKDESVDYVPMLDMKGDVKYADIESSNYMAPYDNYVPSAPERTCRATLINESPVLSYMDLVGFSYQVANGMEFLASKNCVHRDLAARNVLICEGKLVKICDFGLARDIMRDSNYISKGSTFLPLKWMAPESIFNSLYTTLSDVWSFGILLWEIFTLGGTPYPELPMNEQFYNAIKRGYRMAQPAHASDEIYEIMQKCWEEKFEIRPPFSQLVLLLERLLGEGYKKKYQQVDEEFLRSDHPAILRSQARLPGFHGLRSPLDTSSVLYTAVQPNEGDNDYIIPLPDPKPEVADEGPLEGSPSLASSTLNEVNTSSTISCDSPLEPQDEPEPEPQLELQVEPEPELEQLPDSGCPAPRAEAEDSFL
Briefly: panel of 402 kinases: PDGFRβ. In kind it is binding. The protocol: as §1, §2

Data set [12] addresses T9, TAK1 (Homo sapiens, UniProt O43318).
T9 construct: purchased KinomeScan
Briefly: panel of 402 kinases: TAK1. It counts as binding. The following applies: read-out: residual activity relatively to control. The protocol:
as §1, §2

Data set [13] concerns the target T10, TGFR2 (Homo sapiens, UniProt P37173).
T10 construct: purchased KinomeScan
Briefly: panel of 402 kinases: TGFR2. It counts as binding. The settings on record: read-out: residual activity relatively to control. On the procedure: as §1, §2

Data set [14] deals with T11, CDKL5 (Homo sapiens, UniProt O76039).
T11 construct: purchased KinomeScan
Briefly: panel of 402 kinases: CDKL5. The following applies: 1 μM. It counts as binding. The protocol: as §1, §2

Data set [15] concerns the target T12, ERK1 (Homo sapiens, UniProt P27361).
T12 construct: purchased KinomeScan
Briefly: panel of 402 kinases: ERK1. In kind it is binding. The settings on record: 1 μM. The protocol: as §1, §2

Data set [16] has as its target GSK3β (Homo sapiens, UniProt P49841). The experiment in a line: panel of 402 kinases: GSK3β. In kind it is binding. The following applies: 1 μM. The protocol:
as §1, §2

Data set [17] has as its target T13, NIK (Homo sapiens, UniProt Q99558).
T13 construct: purchased KinomeScan
Briefly: panel of 402 kinases: NIK. It counts as binding. The following applies: 1 μM. The protocol:
as §1, §2

The target of data set [18] is T14, NLK (Homo sapiens, UniProt Q9UBE8).
T14 construct: purchased KinomeScan
Briefly: panel of 402 kinases: NLK. It counts as binding. The settings on record: 1 μM. On the procedure: as §1, §2

For data set [19], the target named is T15, PRP4 (Homo sapiens, UniProt Q13523).
T15 construct: purchased KinomeScan
The experiment in a line: panel of 402 kinases: PRP4. The settings on record: 1 μM. It counts as binding. On the procedure: as §1, §2

For data set [20], the target named is Flt3 D835Y (Homo sapiens, UniProt P36888, D835Y). The experiment in a line: kinase mutants: Flt3 D835Y. It counts as binding. The settings on record: gain of function mutation. On the procedure:
as §1
(§3) The two compounds were also evaluated against a series of mutations of Flt3 and KIT. It is known that several mutation in Flt3 lead to a gain of function or constitutive activity.

Data set [21] concerns the target Flt3 K663Q (Homo sapiens, UniProt P36888, K663Q). The experiment in a line: kinase mutants: Flt3 K663Q. It counts as binding. The following applies: gain of function mutation. On the procedure:
as §1, §3

Data set [22] has as its system Flt3 N841L. Briefly: kinase mutants: Flt3 N841L. It counts as binding. The settings on record: gain of function mutation. On the procedure: as §1, §3
Data set [23] addresses KIT D816V (Homo sapiens, UniProt P10721, D816V). Briefly: kinase mutants: KIT D816V. In kind it is binding. The following applies: gain of function mutation. On the procedure: as §1, §3
In data set [24] the target is KIT L576P (Homo sapiens, UniProt P10721, L576P). The experiment in a line: kinase mutants: KIT L576P. It counts as binding. The following applies: gain of function mutation. The protocol: as §1, §3
Sequence of KIT L576P (P10721 26-976 L576P): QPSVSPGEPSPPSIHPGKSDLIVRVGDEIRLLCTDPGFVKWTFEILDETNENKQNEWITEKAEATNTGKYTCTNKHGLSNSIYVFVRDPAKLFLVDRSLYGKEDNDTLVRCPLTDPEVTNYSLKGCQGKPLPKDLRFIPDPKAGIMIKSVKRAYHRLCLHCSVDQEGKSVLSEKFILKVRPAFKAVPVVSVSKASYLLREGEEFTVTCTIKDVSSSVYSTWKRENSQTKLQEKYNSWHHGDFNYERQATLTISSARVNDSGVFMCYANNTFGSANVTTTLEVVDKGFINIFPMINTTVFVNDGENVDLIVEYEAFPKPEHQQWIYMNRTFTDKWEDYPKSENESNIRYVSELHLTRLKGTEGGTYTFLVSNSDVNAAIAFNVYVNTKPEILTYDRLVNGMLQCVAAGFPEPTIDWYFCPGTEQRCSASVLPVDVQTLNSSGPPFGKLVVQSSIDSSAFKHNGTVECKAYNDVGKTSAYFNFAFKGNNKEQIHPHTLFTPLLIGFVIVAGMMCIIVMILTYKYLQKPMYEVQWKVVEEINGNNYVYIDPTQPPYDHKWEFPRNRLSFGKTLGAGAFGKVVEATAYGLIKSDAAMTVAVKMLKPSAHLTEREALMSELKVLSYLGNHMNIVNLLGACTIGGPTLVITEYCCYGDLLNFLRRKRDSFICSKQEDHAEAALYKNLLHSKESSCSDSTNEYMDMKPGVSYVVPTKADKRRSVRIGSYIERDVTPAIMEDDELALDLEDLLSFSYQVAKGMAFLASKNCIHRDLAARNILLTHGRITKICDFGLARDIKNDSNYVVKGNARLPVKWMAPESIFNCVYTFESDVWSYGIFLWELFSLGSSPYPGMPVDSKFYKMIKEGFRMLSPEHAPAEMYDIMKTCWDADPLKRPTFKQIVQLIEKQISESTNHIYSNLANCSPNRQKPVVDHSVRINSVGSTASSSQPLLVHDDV
The target of data set [25] is KIT V559D (Homo sapiens, UniProt P10721, V559D). The experiment in a line: kinase mutants: KIT V559D. The settings on record: gain of function mutation. In kind it is binding. The protocol:
as §1, §3

Data set [26] deals with KIT V559D, T670I (Homo sapiens, UniProt P10721, T670I/V559D). The experiment in a line: kinase mutants: KIT V559D, T670I. In kind it is binding. The following applies: dual mutation conferring resistance to imatinib. The protocol: as §1, §3
Sequence of KIT V559D, T670I (P10721 26-976 V559D/T670I): as the sequence (P10721 26-976 L576P) above, with V534D, P551L, T645I counted along it
Data set [27] addresses KIT V559D, V654A (Homo sapiens, UniProt P10721, V559D/V654A). Briefly: kinase mutants: KIT V559D, V654A. The following applies: dual mutation conferring resistance to imatinib. It counts as binding. On the procedure:
as §1, §3

For data set [28], the target named is T16, MEK4 (Homo sapiens, UniProt P45985).
T16 construct: purchased KinomeScan
The experiment in a line: panel of 402 kinases: MEK4. It counts as binding. The following applies: read-out: residual activity relatively to control. On the procedure:
as §1, §2

The conditions of data set [29]: in vivo; cited from earlier work.
Data set [30] concerns orthotopically implanted RENCA-LN cells. The experiment in a line: orthotopic murine renal cell carcinoma (RENCA) model, in vivo efficacy. The settings on record: untreated group had two animals; groups of 12. The protocol: RENCA-LN cells were obtained and cultured as described above. Sixty female BALB/c mice of 5 to 6 weeks were orthotopically implanted RENCA-LN cells into the left kidney (4×10^5 cells in 25 μl aliquots into the subcapsular space through a flank incision, Day 0). The mice were randomly divided into 5 groups of 12 mice each. On day 2, therapy was initiated. Animals in the vehicle control group (group 1) received 10 ml/kg Vehicle (PBS w/o Ca/Mg, 10% DMSO, 40% PEG-300) i.p. once daily until day 19. Animals of positive control group (group 2) received 40 mg/kg Sunitinib (Sutent®) p.o. once daily until day 20. Animals of treatment group 3 and 4 received 20 mg/kg of 3 once daily and every other day respectively (i.p.). Animals of treatment group 5 received 20 mg/kg of 5 once daily (i.p.). Due to partial weight loss, therapy in Groups 3 and 5 was suspended on days 11 and 12 and stopped on day 17. On day 20, the study was terminated and a necropsy performed. All animals were weighted, anaesthetised by isoflurane and killed by exsanguination. Two animals in group 1 were found dead on day 19 and 1 animal in group 3 and 5 on day 11 and 9 respectively. At necropsy, primary tumor weight and volume, lung weight and number of lung metastases were determined. Primary tumor tissues were collected and divided into two parts. One part of each tumor was snap-frozen in liquid nitrogen and stored at −80° C. whereas the other part was analyzed via ex vivo bioluminescence imaging. During the course of the study, the growth of the orthotopically implanted RENCA tumors was monitored on days 7, 14 and 19 using in vivo bioluminescence imaging. For this purpose, luciferin was injected intraperitoneally (i.p.) into the mice and light emission was measured post injection (10 min) using a NightOWL LB 981 bioluminescence imaging system (Berthold Technologies, Germany). The migration of RENCA tumor cells into the lung (metastasis) was analyzed post necropsy by counting nodules and using the luciferase assay. For this purpose, lungs were collected, homogenized, and assayed for luciferase activity using the kit from Promega (E1501) according to the manufacturer's instructions. Protein concentrations were determined using a Bradford assay and used to normalize luciferase activities (except for the primary tumor). A histological examination of the tumor vasculature was performed. For this purpose, cryosections of primary tumor tissues (thickness=5-10 μm) from the snap-frozen portion of the organ and blood vessels were visualized by immunohistochemical staining for CD 31 (PECAM-1; PharMingen, San Diego, Calif.). […] Statistical analysis of efficacy data was done using the Mann Whitney test.

The mark [31] stands for this setting: read-out: residual activity relatively to control.

Sequence of KIT D816V (P10721 26-976 D816V): as the sequence (P10721 26-976 L576P) above, with P551L, D791V counted along it
T1 sequence (P17948 27-1338): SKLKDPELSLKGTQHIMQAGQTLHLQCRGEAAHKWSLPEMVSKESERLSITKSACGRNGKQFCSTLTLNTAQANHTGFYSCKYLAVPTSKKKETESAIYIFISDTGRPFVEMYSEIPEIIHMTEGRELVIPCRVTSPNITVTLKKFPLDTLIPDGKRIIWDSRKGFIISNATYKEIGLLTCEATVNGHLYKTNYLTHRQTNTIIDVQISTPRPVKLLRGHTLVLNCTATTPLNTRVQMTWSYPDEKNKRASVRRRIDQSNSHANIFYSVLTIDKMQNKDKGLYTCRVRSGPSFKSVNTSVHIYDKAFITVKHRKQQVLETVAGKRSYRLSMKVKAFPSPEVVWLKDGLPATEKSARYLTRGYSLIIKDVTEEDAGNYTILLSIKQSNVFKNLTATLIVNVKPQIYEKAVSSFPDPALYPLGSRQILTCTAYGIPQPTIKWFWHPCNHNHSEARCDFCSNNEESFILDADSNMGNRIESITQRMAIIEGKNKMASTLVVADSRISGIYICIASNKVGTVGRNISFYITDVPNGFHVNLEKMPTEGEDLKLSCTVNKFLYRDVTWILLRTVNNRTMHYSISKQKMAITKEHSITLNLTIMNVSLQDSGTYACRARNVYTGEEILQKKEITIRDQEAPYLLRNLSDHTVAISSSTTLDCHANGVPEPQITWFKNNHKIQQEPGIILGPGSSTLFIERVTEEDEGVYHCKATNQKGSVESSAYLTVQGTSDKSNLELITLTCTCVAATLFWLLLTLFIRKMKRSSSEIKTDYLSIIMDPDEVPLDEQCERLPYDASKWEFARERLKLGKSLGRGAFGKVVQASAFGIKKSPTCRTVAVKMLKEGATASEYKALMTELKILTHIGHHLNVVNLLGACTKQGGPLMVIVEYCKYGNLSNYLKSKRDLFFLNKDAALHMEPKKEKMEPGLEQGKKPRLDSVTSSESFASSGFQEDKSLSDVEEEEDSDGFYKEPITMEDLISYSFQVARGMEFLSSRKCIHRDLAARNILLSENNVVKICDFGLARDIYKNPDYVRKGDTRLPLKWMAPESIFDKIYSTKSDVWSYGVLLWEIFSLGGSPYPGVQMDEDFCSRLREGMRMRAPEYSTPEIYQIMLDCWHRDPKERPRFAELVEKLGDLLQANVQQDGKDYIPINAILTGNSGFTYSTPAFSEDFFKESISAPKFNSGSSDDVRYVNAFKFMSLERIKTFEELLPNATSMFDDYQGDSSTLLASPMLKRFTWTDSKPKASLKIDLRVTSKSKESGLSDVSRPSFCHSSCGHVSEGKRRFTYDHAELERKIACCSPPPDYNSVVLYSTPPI
Sequence of KIT V559D (P10721 26-976 V559D): as the sequence (P10721 26-976 L576P) above, with V534D, P551L counted along it
Sequence of KIT V559D, V654A (P10721 26-976 V559D/V654A): as the sequence (P10721 26-976 L576P) above, with V534D, P551L, V629A counted along it
T3 sequence (O14976 whole entry): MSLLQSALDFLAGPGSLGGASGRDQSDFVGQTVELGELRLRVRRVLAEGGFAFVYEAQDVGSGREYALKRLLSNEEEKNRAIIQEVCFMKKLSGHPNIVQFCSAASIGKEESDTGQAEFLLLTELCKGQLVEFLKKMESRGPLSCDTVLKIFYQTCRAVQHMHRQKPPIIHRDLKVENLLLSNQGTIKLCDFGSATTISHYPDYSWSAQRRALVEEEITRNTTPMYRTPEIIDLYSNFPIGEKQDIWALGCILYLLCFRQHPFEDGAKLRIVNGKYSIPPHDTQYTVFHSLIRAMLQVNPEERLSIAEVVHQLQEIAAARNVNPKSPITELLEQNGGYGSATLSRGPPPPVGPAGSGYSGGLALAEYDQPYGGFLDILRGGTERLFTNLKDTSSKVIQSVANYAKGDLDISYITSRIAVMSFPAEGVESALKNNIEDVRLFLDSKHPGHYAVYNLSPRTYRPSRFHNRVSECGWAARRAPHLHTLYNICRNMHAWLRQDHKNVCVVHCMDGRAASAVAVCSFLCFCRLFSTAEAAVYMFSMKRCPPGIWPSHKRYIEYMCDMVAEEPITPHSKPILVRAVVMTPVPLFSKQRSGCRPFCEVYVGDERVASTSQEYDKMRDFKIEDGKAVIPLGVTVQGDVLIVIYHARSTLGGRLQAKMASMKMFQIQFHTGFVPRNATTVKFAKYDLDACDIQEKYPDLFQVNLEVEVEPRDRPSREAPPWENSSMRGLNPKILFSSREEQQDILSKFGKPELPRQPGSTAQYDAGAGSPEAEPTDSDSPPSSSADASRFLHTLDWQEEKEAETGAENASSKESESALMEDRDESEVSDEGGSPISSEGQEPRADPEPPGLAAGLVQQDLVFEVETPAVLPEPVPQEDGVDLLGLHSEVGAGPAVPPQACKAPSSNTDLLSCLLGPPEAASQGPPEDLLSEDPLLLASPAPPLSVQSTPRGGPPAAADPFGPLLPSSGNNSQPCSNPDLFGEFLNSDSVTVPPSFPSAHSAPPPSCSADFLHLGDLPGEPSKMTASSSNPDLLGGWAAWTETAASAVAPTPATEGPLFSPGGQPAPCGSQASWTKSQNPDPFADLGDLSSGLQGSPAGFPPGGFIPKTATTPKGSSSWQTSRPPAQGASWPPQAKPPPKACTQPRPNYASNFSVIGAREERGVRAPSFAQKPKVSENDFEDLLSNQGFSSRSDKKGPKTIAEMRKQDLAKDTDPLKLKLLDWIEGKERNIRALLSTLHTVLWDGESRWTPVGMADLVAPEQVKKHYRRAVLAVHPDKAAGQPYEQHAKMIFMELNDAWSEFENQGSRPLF
Sequence of KIT (P10721 26-976): as the sequence (P10721 26-976 L576P) above, with P551L counted along it

With `C[C@H]1C/C=C\C(=O)[C@@H](O)[C@@H](O)CCCc2cc(O)cc(O)c2C(=O)O1` [1afh], the “number of kinases outside of the set of 46 predicted kinases showing significant inhibition (STK36 and PRKD2)” value in data set [1] is reported as “two”. The “number of kinases out of 31 with more than 50% residual activity” value in data set [1] is 11. The remaining activity at 1 µM in [2] (setting [31]), in [3], in data set [4], in data set [5], in [6] and in data set [7] was < 10% in each case. For the same molecule, the remaining activity at 1 µM in [8], in data set [9], in [10], in data set [11] (setting [31]), in data set [12] and in [13] was < 10% throughout. The inhibition entry in [14], in [15], in [16], in data set [17], in data set [18] and in [19] was “not inhibited” throughout. Besides, in data set [20], the “activity against mutant compared with wild type” value is “more active than against the wild type”. Besides, the “sensitivity of mutant to the inhibitors” value in data set [21] and in [22] was “remained equally sensitive” in each case. In addition, the activity against mutant result in data set [23], in [24] and in data set [25] was “retained their activity” in each case. Further, the “activity against dual mutation” value in data set [26] and in [27] was “not active” throughout.

Turning to `O=C1OCC/C=C\C(=O)[C@@H](O)[C@@H](O)[C@H](O)COc2cc(O)cc(O)c21` [1bgi], in data set [1], the “number of kinases outside of the set of 46 predicted kinases showing significant inhibition (STK36 and PRKD2)” value is reported as “two”. For the same molecule, the “number of kinases out of 31 with more than 50% residual activity” value in [1] is listed as 19. Moreover, the “activity compared to 1afh” value in data set [2] (1 μM) and in data set [11] (1 μM) was “ten times less active” each time. Moreover, the remaining activity at 1 µM in data set [28] came to 1%. The “activity against mutant compared with wild type” value in [20] was “more active than against the wild type”. The “sensitivity of mutant to the inhibitors” value in data set [21] and in [22] was “remained equally sensitive” throughout. The activity against mutant entry in data set [23], in data set [24] and in data set [25] was “retained their activity” each time. In addition, the “activity against dual mutation” value in [26] and in [27] was “not active” each time.

For `CCOc1cc2ncc(C#N)c(Nc3ccc(F)c(Cl)c3)c2cc1NC(=O)/C=C/CN(C)C` [EKB-569], the “safety in phase I clinical trial” value in [29] was “safe”.

Consider `CCN(CC)CCNC(=O)c1c(C)[nH]c(/C=C2\C(=O)Nc3ccc(F)cc32)c1C` [sunitinib, reference compound], for which, in [30], the “animals having a high count of lung metastatic nodules” value amounted to 5.
